# Reference: ChEMBL document CHEMBL5053489, “Effects of Eugenol and Dehydrodieugenol B from Nectandra leucantha against Lipopolysaccharide (LPS)-Induced Experimental Acute Lung Inflammation” (J Nat Prod, 2021)
# Calls of active or inactive are those of the source. The rule behind the calls is not given here.
# Key:
# [1] = target: c-Jun N-terminal kinase (Mus musculus) (UniProt Q91Y86+Q9WTU6+Q61831); assay: Inhibition of LPS-induced JNK phosphorylation in BALB/c mouse at 30 mg/kg administered 6 hrs after LPS stimulation by western blot analysis; format: organism-based
# c-Jun N-terminal kinase (Mus musculus), sequence (Q61831 whole entry, looked up): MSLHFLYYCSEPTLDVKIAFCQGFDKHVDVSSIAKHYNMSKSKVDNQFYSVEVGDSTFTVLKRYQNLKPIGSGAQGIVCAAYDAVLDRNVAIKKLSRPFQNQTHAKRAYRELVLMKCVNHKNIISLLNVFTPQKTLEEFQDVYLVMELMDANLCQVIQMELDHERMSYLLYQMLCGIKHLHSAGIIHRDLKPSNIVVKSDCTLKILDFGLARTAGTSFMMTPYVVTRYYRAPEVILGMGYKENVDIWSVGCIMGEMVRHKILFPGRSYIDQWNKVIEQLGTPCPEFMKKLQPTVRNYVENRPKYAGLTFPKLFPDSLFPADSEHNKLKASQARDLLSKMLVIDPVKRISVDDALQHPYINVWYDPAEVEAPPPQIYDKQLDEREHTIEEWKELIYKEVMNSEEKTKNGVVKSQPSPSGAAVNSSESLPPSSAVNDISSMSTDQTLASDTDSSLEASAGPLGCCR
# c-Jun N-terminal kinase (Mus musculus), sequence (Q91Y86 whole entry, looked up): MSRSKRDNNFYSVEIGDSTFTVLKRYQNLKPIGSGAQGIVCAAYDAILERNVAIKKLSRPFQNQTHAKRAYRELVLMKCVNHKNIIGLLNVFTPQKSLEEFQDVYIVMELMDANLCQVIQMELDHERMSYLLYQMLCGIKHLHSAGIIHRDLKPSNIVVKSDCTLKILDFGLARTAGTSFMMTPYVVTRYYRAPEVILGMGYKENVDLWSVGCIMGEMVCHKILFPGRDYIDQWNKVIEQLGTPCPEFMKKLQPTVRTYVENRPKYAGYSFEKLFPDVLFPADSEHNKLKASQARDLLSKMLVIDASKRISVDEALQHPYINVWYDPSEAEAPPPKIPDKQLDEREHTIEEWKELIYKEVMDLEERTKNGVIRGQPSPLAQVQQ
# c-Jun N-terminal kinase (Mus musculus), sequence (Q9WTU6 whole entry, looked up): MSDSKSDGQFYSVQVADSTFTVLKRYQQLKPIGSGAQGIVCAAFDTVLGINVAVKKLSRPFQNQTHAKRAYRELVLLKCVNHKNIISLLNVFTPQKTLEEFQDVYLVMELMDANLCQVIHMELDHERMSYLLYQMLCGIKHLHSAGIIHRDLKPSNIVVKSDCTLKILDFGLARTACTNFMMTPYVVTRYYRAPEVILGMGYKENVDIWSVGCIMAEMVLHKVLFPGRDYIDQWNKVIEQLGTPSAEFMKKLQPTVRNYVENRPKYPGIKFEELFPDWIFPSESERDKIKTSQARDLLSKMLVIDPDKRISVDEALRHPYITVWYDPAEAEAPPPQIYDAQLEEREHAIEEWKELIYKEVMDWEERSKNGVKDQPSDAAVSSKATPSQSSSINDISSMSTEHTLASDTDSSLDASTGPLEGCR
# Mus musculus [2] = assay: (§1) Antiinflammatory activity in BALB/c mouse model of LPS-induced acute respiratory distress syndrome assessed as reduction in 9-iso-PGF2alpha expression in alveolar septa at 30 mg/kg administered 6 hrs after LPS-stimulation and measured after 24 hrs by pointing-count technique based immunohistochemistry analysis; format: functional, organism-based
# Mus musculus [3] = assay: Antiinflammatory activity in BALB/c mouse model of LPS-induced acute respiratory distress syndrome assessed as reduction in lymphocytes in peripheral blood at 30 mg/kg administered 6 hrs after LPS-stimulation and measured after 24 hrs by Diff-quick stain based analysis; format: functional, organism-based
# Mus musculus [4] = assay: Antiinflammatory activity in BALB/c mouse model of LPS-induced acute respiratory distress syndrome assessed as reduction in density of MMP-9 positive cells in lung parenchyma at 30 mg/kg administered 6 hrs after LPS-stimulation by pointing-count technique based immunohistochemistry analysis; format: functional, organism-based
# Mus musculus [5] = assay: Antiinflammatory activity in BALB/c mouse model of LPS-induced acute respiratory distress syndrome assessed as reduction in iNOS expression in alveolar septa at 30 mg/kg administered 6 hrs after LPS-stimulation and measured after 24 hrs by pointing-count technique based immunohistochemistry analysis; format: functional, organism-based
# Mus musculus [6] = assay: Antiinflammatory activity in BALB/c mouse model of LPS-induced acute respiratory distress syndrome assessed as reduction in total inflammatory cells in BALF at 30 mg/kg administered 6 hrs after LPS-stimulation by Diff-quick stain based analysis; format: functional, organism-based
# Mus musculus [7] = assay: Antiinflammatory activity in BALB/c mouse model of LPS-induced acute respiratory distress syndrome assessed as reduction in macrophages in BALF at 30 mg/kg administered 6 hrs after LPS-stimulation by Diff-quick stain based analysis; format: functional, organism-based
# Mus musculus [8] = assay: Antiinflammatory activity in BALB/c mouse model of LPS-induced acute respiratory distress syndrome assessed as improvement in lung mechanics by measuring respiratory system resistance at 30 mg/kg administered 6 hrs after LPS-stimulation and measured after 24 hrs by forced oscillation technique; format: functional, organism-based
# Mus musculus [9] = assay: Antiinflammatory activity in BALB/c mouse model of LPS-induced acute respiratory distress syndrome assessed as reduction in neutrophils in peripheral blood at 30 mg/kg administered 6 hrs after LPS-stimulation and measured after 24 hrs by Diff-quick stain based analysis; format: functional, organism-based
# Mus musculus [10] = assay: Antiinflammatory activity in BALB/c mouse model of LPS-induced acute respiratory distress syndrome assessed as reduction in inflammatory cells in alveolar septa at 30 mg/kg administered 6 hrs after LPS-stimulation; format: functional, organism-based
# Mus musculus [11] = assay: Antiinflammatory activity in BALB/c mouse model of LPS-induced acute respiratory distress syndrome assessed as reduction in monocytes in peripheral blood at 30 mg/kg administered 6 hrs after LPS-stimulation and measured after 24 hrs by Diff-quick stain based analysis; format: functional, organism-based
# Mus musculus [12] = assay: Antiinflammatory activity in BALB/c mouse model of LPS-induced acute respiratory distress syndrome assessed as improvement in lung mechanics by measuring tissue damping at 30 mg/kg administered 6 hrs after LPS-stimulation and measured after 24 hrs by forced oscillation technique; format: functional, organism-based
# Mus musculus [13] = assay: Antiinflammatory activity in BALB/c mouse model of LPS-induced acute respiratory distress syndrome assessed as reduction in polymorphonuclear cells in alveolar septa at 30 mg/kg administered 6 hrs after LPS-stimulation by pointing-count technique; format: functional, organism-based
# Mus musculus [14] = assay: Antiinflammatory activity in BALB/c mouse model of LPS-induced acute respiratory distress syndrome assessed as reduction in neutrophils in BALF at 20 to 60 mg/kg administered 6 hrs after LPS-stimulation; format: functional, organism-based; details: dose 20-60 mg/kg
# Mus musculus [15] = assay: Antiinflammatory activity in BALB/c mouse model of LPS-induced acute respiratory distress syndrome assessed as reduction in IL-1beta level in BALF at 30 mg/kg administered 6 hrs after LPS-stimulation by ELISA; format: functional, organism-based
# Mus musculus [16] = assay: Antiinflammatory activity in BALB/c mouse model of LPS-induced acute respiratory distress syndrome assessed as reduction in pulmonary edema by measuring wet/dry weight ratio at 30 mg/kg administered 6 hrs after LPS-stimulation and measured after […]; format: functional, organism-based
# Mus musculus [17] = assay: Antiinflammatory activity in BALB/c mouse model of LPS-induced acute respiratory distress syndrome assessed as reduction in leukocytes in peripheral blood at 30 mg/kg administered 6 hrs after LPS-stimulation and measured after 24 hrs by Neubauer counting chamber based analysis; format: functional, organism-based
# Mus musculus [18] = assay: as §1, with “collagen deposition” for “9-iso-PGF2alpha expression”, “lung parenchyma” for “alveolar septa”; format: functional, organism-based
# Mus musculus [19] = assay: Antiinflammatory activity in BALB/c mouse model of LPS-induced acute respiratory distress syndrome assessed as reduction in neutrophils in BALF at 30 mg/kg administered 6 hrs after LPS-stimulation by Diff-quick stain based analysis; format: functional, organism-based
# Mus musculus [20] = assay: Antiinflammatory activity in BALB/c mouse model of LPS-induced acute respiratory distress syndrome assessed as improvement in lung mechanics by measuring tissue elastance at 30 mg/kg administered 6 hrs after LPS-stimulation and measured after 24 hrs by forced oscillation technique; format: functional, organism-based
# Mus musculus [21] = assay: Toxicity in BALB/c mouse model of LPS-induced acute respiratory distress syndrome assessed as reduction in body mass loss percentage at 30 mg/kg administered 6 hrs after LPS-stimulation; format: organism-based; details: in vivo
# Mus musculus [22] = assay: Antiinflammatory activity in BALB/c mouse model of LPS-induced acute respiratory distress syndrome assessed as improvement in lung mechanics by measuring respiratory system elastance at 30 mg/kg administered 6 hrs after LPS-stimulation and measured after 24 hrs by forced oscillation technique; format: functional, organism-based
# Mus musculus [23] = assay: Antiinflammatory activity in BALB/c mouse model of LPS-induced acute respiratory distress syndrome assessed as reduction in density of TIMP-1 positive cells in lung parenchyma at 30 mg/kg administered 6 hrs after LPS-stimulation by pointing-count technique based immunohistochemistry analysis; format: functional, organism-based
# Mus musculus [24] = assay: Antiinflammatory activity in BALB/c mouse model of LPS-induced acute respiratory distress syndrome assessed as reduction in TNF-alpha level in BALF at 30 mg/kg administered 6 hrs after LPS-stimulation by ELISA; format: functional, organism-based
# Mus musculus [25] = assay: Antiinflammatory activity in BALB/c mouse model of LPS-induced acute respiratory distress syndrome assessed as reduction in IL-6 level in BALF at 30 mg/kg administered 6 hrs after LPS-stimulation by ELISA; format: functional, organism-based
structure (smiles),measurement,setting,value
C=CCc1ccc(Oc2cc(CC=C)cc(OC)c2O)c(OC)c1,inhibition,[1],Active
C=CCc1ccc(O)c(OC)c1 [EUGENOL],Activity,Mus musculus [2],Active
same,Activity,Mus musculus [3],Active
same,Activity,Mus musculus [4],Active
same,Activity,Mus musculus [5],Active
same,Activity,Mus musculus [6],Active
same,Activity,Mus musculus [7],Active
same,Activity,Mus musculus [8],inactive
same,Activity,Mus musculus [9],Active
same,Activity,Mus musculus [10],Active
same,Activity,Mus musculus [11],Active
same,Activity,Mus musculus [12],Active
same,Activity,Mus musculus [13],Active
same,inhibition,[1],Active
same,Activity,Mus musculus [14],Active
same,Activity,Mus musculus [15],Active
same,Activity,Mus musculus [16],Active
same,Activity,Mus musculus [17],Active
same,Activity,Mus musculus [18],Active
same,Activity,Mus musculus [19],Active
same,Activity,Mus musculus [20],Active
same,Activity,Mus musculus [21],Non-Toxic
same,Activity,Mus musculus [22],Active
same,Activity,Mus musculus [23],Active
same,Activity,Mus musculus [24],inactive
same,Activity,Mus musculus [25],Active
